Data from patent US11747352B2 (Concordia University, Inc., priority 2017, dated 2023).
Where two headings read alike, the source gives them in different places. Marks after values point to notes of the source that are not given here.

Experiments:
[1] = Eplerenone metabolism via pooled human liver microsomes (HLM150); type: in vitro ADME; settings: human, pooled human liver microsomes (HLM150, 150 donors), HLM 150, Corning/BD
[2] = tested on: human liver microsomes (HLM150); experiment: as above; type: in vitro ADME; settings: for Vmax: HLM 150, Corning/BD
[3] = tested on: human liver microsomes (HLM, Xenotech); settings: cited from earlier work
[4] = cited from earlier work
[5] = tested on: CYP3A; settings: cited from earlier work
[6] = tested on: CYP3A4/5
[7] = target: T1, CYP3A5 (Homo sapiens, UniProt P20815); settings: cited from earlier work
[8] = Table CYP3A4; cited from earlier work
[9] = target: T1, CYP3A5; experiment: Tacrolimus metabolism by rhCYP3A5 (Kamdem et al. 2005); type: in vitro ADME; settings: rhCYP3A5 vs rhCYP3A4
[10] = substrate: COC(=O)[C@@H]1CC2=CC(=O)CC[C@]2(C)[C@@]23O[C@@H]2C[C@@]2(C)[C@@H](CC[C@@]24CCC(=O)O4)[C@H]13; experiment: cells, lysate or membranes named; type: in vitro ADME, human

With `COC(=O)[C@@H]1CC2=CC(=O)CC[C@]2(C)[C@@]23O[C@@H]2C[C@@]2(C)[C@@H](CC[C@@]24CCC(=O)O4)[C@H]13` [Eplerenone] the Km at 10 min ([1]; 6β-OH metabolite formation) was 473 µM, the Km at 10 min ([1]; 21-OH metabolite formation) was 197 µM and the Vmax ([2]; 6β-OH metabolite formation) was 1493 pmol/min/mg. The Vmax ([2]; 21-OH metabolite formation) was 216 pmol/min/mg, the “ISEF for recombinant CYP3A4/5” value ([2]; HLM 150 vs rhCYP3A4 and rhCYP3A5 clearances, Eq. 1) was 1.0 and the Km ([3]; 6β-OH metabolite formation) was 217 µM. The Vmax ([3]; 6β-OH metabolite formation) was 973 pmol/min/mg, the Km ([3]; 21-OH metabolite formation) was 211 µM and the Vmax ([3]; 21-OH metabolite formation) was 143 pmol/min/mg. The “Permeability model Caco-2” value ([4]; Caco-2) was “Caco-2 (24* 10^−6 cm/s)”, the “Compound Type” value ([4]; SimCYP model parameter) was “Neutral” and the “ka” value ([4]; SimCYP model parameter) was 1.647 h⁻¹.

In the case of `Cc1ncc2n1-c1ccc(Cl)cc1C(c1ccccc1F)=NC2` [Midazolam], the “All CYP3A (% Metabolism)” value [5] is listed as 92%, the “AUC fold higher than average” value [6] is listed as 2.3 fold and the “AUC fold lower than the mean” value [6] is listed as 4.1 fold. The “CYP3A5 (% Metabolism)” value [7] was 43%.

In the case of `C=CC[C@@H]1/C=C(\C)C[C@H](C)C[C@H](OC)[C@H]2O[C@@](O)(C(=O)C(=O)N3CCCC[C@H]3C(=O)O[C@H](/C(C)=C/[C@@H]3CC[C@@H](O)[C@H](OC)C3)[C@H](C)[C@@H](O)CC1=O)[C@H](C)C[C@@H]2OC` [Tacrolimus], the “ORAL BIOAVAILABILITY” value [8] is listed as 17-31% ^ and the “higher catalytic efficiency via CYP3A5” value [9] is listed as 60%.

In the case of `Cc1nnc2n1-c1ccc(Cl)cc1C(c1ccccc1Cl)=NC2` [Triazolam], the “All CYP3A (% Metabolism)” value [5] is given as 92% and the “CYP3A5 (% Metabolism)” value [7] is given as 25%.

B1: rhCYP3A5 (Homo sapiens) (protein)
chain: MDLIPNLAVETWLLLAVSLVLLYLYGTRTHGLFKRLGIPGPTPLPLLGNVLSYRQGLWKFDTECYKKYGKMWGTYEGQLPVLAITDPDVIRTVLVKECYSVFTNRRSLGPVGFMKSAISLAEDEEWKRIRSLLSPTFTSGKLKEMFPIIAQYGDVLVRNLRREAEKGKPVTLKDIFGAYSMDVITGTSFGVNIDSLNNPQDPFVESTKKFLKFGFLDPLFLSIILFPFLTPVFEALNVSLFPKDTINFLSKSVNRMKKSRLNDKQKHRLDFLQLMIDSQNSKETESHKALSDLELAAQSIIFIFAGYETTSSVLSFTLYELATHPDVQQKLQKEIDAVLPNKAPPTYDAVVQMEYLDMVVNETLRLFPVAIRLERTCKKDVEINGVFIPKGSMVVIPTYALHHDPKYWTEPEEFRPERFSKKKDSIDPYIYTPFGTGPRNCIGMRFALMNMKLALIRVLQNFSFKPCKETQIPLKLDTQGLLQPEKPIVLKVDSRDGTLSGE
notes: purchased BD Biosciences/Corning
Molecule B1 has a Km ([10]; other: 6β-OH metabolite formation, rhCYP3A5 (printed rhCYPA5)) of 142 mcM and a Km ([10]; other: 21-OH metabolite formation, rhCYP3A5) of 72 mcM.
